Biological target: T1, ΔF508-CFTR (Homo sapiens, UniProt P13569, DEL508-508)
T1 construct: expressed in transfected cells
Experiment: Membrane potential optical assay for potentiators of ΔF508-CFTR (FLIPR III, voltage sensing dyes)
Format: cell-based
Details: for Emax: NIH3T3, 100% efficacy is the maximum response obtained with 4-methyl-2-(5-phenyl-1H-pyrazol-3-yl)phenol, ΔF508 CFTR NIH 3T3 cells; for EC50: temperature-corrected ΔF508 CFTR NIH 3T3 cells, forskolin activation
Description: The assay utilizes fluorescent voltage sensing dyes to measure changes in membrane potential using a fluorescent plate reader (e.g., FLIPR III, Molecular Devices, Inc.) as a readout for increase in functional ΔF508-CFTR in NIH 3T3 cells.
To identify potentiators of ΔF508-CFTR, a double-addition HTS assay format was developed. This HTS assay utilizes fluorescent voltage sensing dyes to measure changes in membrane potential on the FLIPR III as a measurement for increase in gating (conductance) of ΔF508 CFTR in temperature-corrected ΔF508 CFTR NIH 3T3 cells.
Solutions • Bath Solution #1: (in mM) NaCl 160, KCl 4.5, CaCl2 2, MgCl2 1, HEPES 10, pH 7.4 with NaOH. • Chloride-Free Bath Solution: Chloride Salts in Bath Solution #1 are Substituted with Gluconate Salts.
NIH3T3 mouse fibroblasts stably expressing ΔF508-CFTR are used for optical measurements of membrane potential. The cells are maintained at 37° C. in 5% CO2 and 90% humidity in Dulbecco's modified Eagle's medium supplemented with 2 mM glutamine, 10% fetal bovine serum, 1×NEAA, β-ME, 1×pen/strep, and 25 mM HEPES in 175 cm^2 culture flasks. For all optical assays, the cells were seeded at ˜20,000/well in 384-well matrigel-coated plates and cultured for 2 hrs at 37° C. before culturing at 27° C. for 24 hrs. for the potentiator assay. For the correction assays, the cells are cultured at 27° C. or 37° C. with and without compounds for 16-24 hours. Electrophysiological Assays for assaying ΔF508-CFTR modulation properties of compounds.

T1 sequence (P13569 with tags, fused parts or gaps DEL508-508): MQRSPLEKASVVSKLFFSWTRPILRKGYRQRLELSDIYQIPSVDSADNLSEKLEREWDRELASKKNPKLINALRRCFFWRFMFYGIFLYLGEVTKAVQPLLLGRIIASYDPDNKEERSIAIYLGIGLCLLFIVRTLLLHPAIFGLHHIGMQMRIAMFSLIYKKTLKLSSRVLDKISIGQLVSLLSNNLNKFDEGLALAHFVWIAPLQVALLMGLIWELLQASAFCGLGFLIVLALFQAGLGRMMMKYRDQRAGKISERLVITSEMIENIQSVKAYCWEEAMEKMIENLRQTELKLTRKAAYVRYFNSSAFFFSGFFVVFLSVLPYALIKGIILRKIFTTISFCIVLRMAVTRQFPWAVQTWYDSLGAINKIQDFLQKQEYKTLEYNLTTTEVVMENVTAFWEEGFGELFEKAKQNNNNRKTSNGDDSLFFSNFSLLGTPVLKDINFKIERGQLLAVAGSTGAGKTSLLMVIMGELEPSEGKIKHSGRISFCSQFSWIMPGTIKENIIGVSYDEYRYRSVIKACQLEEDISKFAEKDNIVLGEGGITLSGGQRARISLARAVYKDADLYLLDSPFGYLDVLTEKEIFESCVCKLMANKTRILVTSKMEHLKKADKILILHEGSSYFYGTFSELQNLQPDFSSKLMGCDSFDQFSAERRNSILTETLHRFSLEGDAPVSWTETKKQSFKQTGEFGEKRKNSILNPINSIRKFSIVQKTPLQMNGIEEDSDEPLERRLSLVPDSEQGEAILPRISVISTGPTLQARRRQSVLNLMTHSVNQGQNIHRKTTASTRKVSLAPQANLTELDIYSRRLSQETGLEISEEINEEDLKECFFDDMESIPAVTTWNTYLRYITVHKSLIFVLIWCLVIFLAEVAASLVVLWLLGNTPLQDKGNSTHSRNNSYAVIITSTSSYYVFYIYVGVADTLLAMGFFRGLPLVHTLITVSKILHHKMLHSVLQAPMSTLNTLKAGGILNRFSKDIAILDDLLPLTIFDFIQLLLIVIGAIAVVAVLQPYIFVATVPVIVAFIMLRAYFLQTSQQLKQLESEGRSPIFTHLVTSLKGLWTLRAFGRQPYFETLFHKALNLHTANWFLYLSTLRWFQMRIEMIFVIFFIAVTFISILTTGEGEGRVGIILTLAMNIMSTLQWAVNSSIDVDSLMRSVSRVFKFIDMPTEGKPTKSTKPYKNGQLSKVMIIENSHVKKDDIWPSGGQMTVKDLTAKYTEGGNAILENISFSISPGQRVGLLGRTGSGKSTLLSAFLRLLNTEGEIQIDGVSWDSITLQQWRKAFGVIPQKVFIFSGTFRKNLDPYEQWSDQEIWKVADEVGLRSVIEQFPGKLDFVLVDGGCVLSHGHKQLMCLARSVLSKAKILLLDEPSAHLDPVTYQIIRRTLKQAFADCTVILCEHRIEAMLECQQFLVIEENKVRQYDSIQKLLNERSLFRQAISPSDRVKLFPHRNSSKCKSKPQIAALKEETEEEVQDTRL

| Structure (SMILES) | Emax | EC50 |
| --- | --- | --- |
| COc1ccc2c(c1)OC(C(=O)Nc1ccc(C(C)(C)C)c(O)c1)CN2 (stereo not shown) [Compound 1] | < 25% | 5 to 20 µM |
| Cc1ccc2c(c1)OC(C(=O)Nc1cc(O)c(C3(C)CCCCC3)cc1F)CN2 (stereo not shown) [Compound 2] | 25 to 100% | < 5 µM |
| O=C(Nc1cc(O)c(C2CCCC2)cc1CN1CCCCC1)C1CNc2ccccc2O1 (stereo not shown) [Compound 3] | 25 to 100% | < 5 µM |
| CCOC(=O)CCc1cc(C2CCCC2)c(O)cc1NC(=O)C1CNc2cc(OC(F)(F)F)ccc2O1 (stereo not shown) [Compound 4] | > 100% | < 5 µM |
| O=C(Nc1ccc(C(F)(F)F)c(O)c1)C1CNc2ccccc2O1 (stereo not shown) [Compound 5] | < 25% | 5 to 20 µM |
| Cc1cc2c(cc1F)NCC(C(=O)Nc1cc(O)c(C(C)(C)C)cc1C(C)(C)C)O2 (stereo not shown) [Compound 6] | 25 to 100% | < 5 µM |
| Cc1cc(C#CCN(C)C)c(NC(=O)C2CNc3cc(OC(F)(F)F)ccc3O2)cc1O (stereo not shown) [Compound 7] | 25 to 100% | < 5 µM |
| CC(C)(C)c1cc(C(C)(C)C)c(NC(=O)C2CNc3cc(F)c(F)cc3O2)cc1O (stereo not shown) [Compound 8] | 25 to 100% | < 5 µM |
| Cc1ccc(NC(=O)C2CNc3cc(OC(F)(F)F)ccc3O2)c(C#CCN2CCC(F)(F)CC2)c1 (stereo not shown) [Compound 9] | 25 to 100% | < 5 µM |
| N#Cc1ccc2c(c1)NCC(C(=O)Nc1cc(O)c(C3CCCC3)cc1C1=CCNCC1)O2 (stereo not shown) [Compound 11, 6-cyano-N-(4-cyclopentyl-5-hydroxy-2-(1,2,3,6-tetrahydropyridin-4-yl)phenyl)-3,4-dihydro-2H-benzo[b][1,4]oxazine-2-carboxamide] | 25 to 100% | 5 to 20 µM |
| COc1ccc2c(c1)NCC(C(=O)Nc1ccc(C(C)(C)C)c(O)c1)O2 (stereo not shown) [Compound 14] | < 25% | 5 to 20 µM |
| Cc1cc(C)c(NC(=O)C2CNc3cc(OC(F)(F)F)ccc3O2)c(C#CCN(C)C)c1 (stereo not shown) [Compound 15] | 25 to 100% | < 5 µM |
| O=C(O)CCc1cc(C2CCCC2)c(O)cc1NC(=O)C1CNc2cc(OC(F)(F)F)ccc2O1 (stereo not shown) [Compound 16] | 25 to 100% | < 5 µM |
| CC1(c2cc(F)c(NC(=O)C3CNc4cc(F)ccc4O3)cc2O)CCCCC1 (stereo not shown) [Compound 18] | 25 to 100% | < 5 µM |
| CC1(c2cc(F)c(NC(=O)[C@@H]3CNc4ccccc4O3)cc2O)CCCCC1 [Compound 19] | 25 to 100% | < 5 µM |
| CCc1cc(F)c(NC(=O)C2CNc3ccc(F)cc3O2)cc1O (stereo not shown) [Compound 20] | 25 to 100% | < 5 µM |

| Structure (SMILES) | Emax | EC50 |
| --- | --- | --- |
| O=C(Nc1cc(O)c(C2CCCC2)cc1C#CCN1CCCC1)C1CNc2cc(OC(F)(F)F)ccc2O1 (stereo not shown) [Compound 22] | > 100% | < 5 µM |
| O=C(O)Cc1cc(C2CCCC2)c(O)cc1NC(=O)C1CNc2cc(OC(F)(F)F)ccc2O1 (stereo not shown) [Compound 24] | > 100% | < 5 µM |
| Cc1ccc(NC(=O)C2CNc3cc(OC(F)(F)F)ccc3O2)c(C#CCN(C)C)c1 (stereo not shown) [Compound 26] | 25 to 100% | < 5 µM |
| O=C(Nc1ccc(C2CC2)c(O)c1)C1CNc2ccccc2O1 (stereo not shown) [Compound 27] | 25 to 100% | < 5 µM |
| COc1cc(NC(=O)C2CNc3ccccc3O2)ccc1-n1c(C)ccc1C (stereo not shown) [Compound 28] | 25 to 100% | 5 to 20 µM |
| O=C(Nc1ccc2c(C(F)(F)F)c[nH]c2c1)C1CNc2ccccc2O1 (stereo not shown) [Compound 30] | 25 to 100% | 5 to 20 µM |
| CC(C)(C)c1ccc(NC(=O)C2CNc3cccc(F)c3O2)cc1O (stereo not shown) [Compound 33] | 25 to 100% | < 5 µM |
| CC(C)(C)c1ccc(NC(=O)C2CNc3ccc(F)cc3O2)cc1O (stereo not shown) [Compound 35] | 25 to 100% | < 5 µM |
| Cc1cc(C#CCN(C)C)c(NC(=O)C2CNc3ccccc3O2)cc1F (stereo not shown) [Compound 36] | 25 to 100% | 5 to 20 µM |
| CN(C)CCCc1cc(C2CCCC2)c(O)cc1NC(=O)C1CNc2cc(OC(F)(F)F)ccc2O1 (stereo not shown) [Compound 38, N-(4-cyclopentyl-2-(3-(dimethylamino)propyl)-5-hydroxyphenyl)-6-(trifluoromethoxy)-3,4-dihydro-2H-benzo[b][1,4]oxazine-2-carboxamide] | 25 to 100% | < 5 µM |
| Cc1cnc(NC(=O)C2CNc3cc(OC(F)(F)F)ccc3O2)c(C#CCN(C)C)c1 (stereo not shown) [Compound 41] | 25 to 100% | < 5 µM |
| CC(C)Oc1ccc(NC(=O)C2CNc3ccc(F)cc3O2)cc1O (stereo not shown) [Compound 42] | < 25% | 5 to 20 µM |
| CN(C)CC#Cc1cc(N2C3CCC2CC3)ccc1NC(=O)C1CNc2cc(C#N)ccc2O1 (stereo not shown) [Compound 43, N-(4-(7-azabicyclo[2.2.1]heptan-7-yl)-2-(3-(dimethylamino)prop-1-ynyl)phenyl)-6-cyano-3,4-dihydro-2H-benzo[b][1,4]oxazine-2-carboxamide] | – | < 5 µM |
| CCc1ccc(NC(=O)C2CNc3cc(OC(F)(F)F)ccc3O2)c(C#CCN(C)C)c1 (stereo not shown) [Compound 44] | > 100% | < 5 µM |
| Cc1ccc(NC(=O)C2CNc3cc(OC(F)(F)F)ccc3O2)c(C#CCN2CCC(F)(F)C2)c1 (stereo not shown) [Compound 45] | 25 to 100% | < 5 µM |
| CC1CCN(Cc2cc(C3CCCC3)c(O)cc2NC(=O)C2CNc3ccccc3O2)CC1 (stereo not shown) [Compound 46] | > 100% | < 5 µM |

Further lines, results first:

| Emax | EC50 | Structure (SMILES) |
| --- | --- | --- |
| < 25% | 5 to 20 µM | CCN1CCN(c2cc(C3CCCC3)c(O)cc2NC(=O)C2CNc3cc(C#N)ccc3O2)CC1 (stereo not shown) [Compound 10] |
| 25 to 100% | < 5 µM | O=C(Nc1cc(O)c(C2CCCC2)cc1C#CCO)C1CNc2cc(OC(F)(F)F)ccc2O1 (stereo not shown) [Compound 12] |
| > 100% | < 5 µM | CC(C)(C)c1cc(C2CCCC2)c(O)cc1NC(=O)[C@H]1CNc2cc(C#N)ccc2O1 [Compound 13] |
| 25 to 100% | < 5 µM | N#Cc1cc(C2CCCC2)c(O)cc1NC(=O)[C@H]1CNc2ccc(F)cc2O1 [Compound 17] |
| 25 to 100% | < 5 µM | Cc1cc(C2CCCC2)c(O)cc1NC(=O)C1CNc2ccc(F)cc2O1 (stereo not shown) [Compound 21] |
| 25 to 100% | < 5 µM | N#Cc1cc(C2CCCC2)c(O)cc1NC(=O)C1CNc2ccc(F)cc2O1 (stereo not shown) [Compound 23] |
| 25 to 100% | < 5 µM | Cc1cc(C2CCCC2)c(O)cc1NC(=O)[C@@H]1CNc2cc(C#N)ccc2O1 [Compound 25] |
| < 25% | 5 to 20 µM | CN1CCN(c2cc(C3CCCC3)c(O)cc2NC(=O)C2CNc3cc(C#N)ccc3O2)CC1 (stereo not shown) [Compound 29] |
| 25 to 100% | < 5 µM | O=C(Nc1cc(O)c(C2CCCC2)cc1C(F)(F)F)C1CNc2ccc(F)cc2O1 (stereo not shown) [Compound 31] |
| 25 to 100% | < 5 µM | O=C(Nc1cc(O)c(C2CCCC2)cc1C(F)(F)F)[C@H]1CNc2cc(OC(F)(F)F)ccc2O1 [Compound 32] |
| 25 to 100% | < 5 µM | CN(C)CC#Cc1cc(C2CCCC2)c(O)cc1NC(=O)C1CNc2cc(C#N)ccc2O1 (stereo not shown) [Compound 34] |
| 25 to 100% | < 5 µM | CN(C)CC#Cc1cc(C2CCCC2)c(O)cc1NC(=O)[C@@H]1CNc2ccccc2O1 [Compound 37] |
| 25 to 100% | < 5 µM | N#Cc1ccc2c(c1)NCC(C(=O)Nc1cc(O)c(C3CCCC3)cc1C(F)(F)F)O2 (stereo not shown) [Compound 39] |
| 25 to 100% | < 5 µM | NCC#Cc1cc(C2CCCC2)c(O)cc1NC(=O)C1CNc2cc(OC(F)(F)F)ccc2O1 (stereo not shown) [Compound 40] |

Source: patent publication US8999976B2, “Modulators of cystic fibrosis transmembrane conductance regulator” (Vertex Pharmaceuticals Incorporated, priority 2008, dated 2015)
